Legend:
DPP4 = conditions: plasma, degradation by DPP4; no reference given; cited from earlier work
Description: GLP-1 receptors are expressed in multiple brain areas in rodents, primates, and humans and they are involved in learning, neuroprotection and regulation of appetite and satiety ([Wei and Mojsov, 1995]; [During et al., 2003]; [Richards et al., 2014]). Global knockout of the GLP-1 receptor in mice impairs synaptic plasticity and memory formation ([Abbas et al., 2009]). […] Indeed, pre-treatment of animals w ...

[1] = Microvascular perfusion in hippocampus and skeletal muscle (contrast-enhanced ultrasound), with blood glucose and MAP; format: in vivo; conditions: rat
Protocol: After a 30–45 min baseline period to ensure hemodynamic stability and a stable level of anesthesia, baseline microvascular blood volume (MBV) and microvascular flow velocity (MFV), in the hippocampus and skeletal muscle were determined using contrast-enhanced ultrasound (CEU), as described previously ([Chai et al., 2010]; [Fu et al., 2013], [2017]). In brief, microbubbles (Definity; Lantheus Medical Imaging) were diluted with normal saline (1:10 vol:vol) and infused intravenously at a rate of 0.8 mL/h. Once the systemic microbubble concentrations reached steady state (∼6 min), high-power pulse-inversion ultrasound (HDI-5000; Philips Ultrasound) was used to image the microbubble signals in the hippocampus and the proximal adductor muscle group (adductor magnus and semimembranosus). Intermittent imaging was performed at pulsing intervals ranging from 0.5 to 10 s. At least three images were acquired at each pulsing interval, and the images obtained at 0.5 s were used as background. Pulsing interval vs. background-subtracted video intensity was fitted to the function y = A (1 − e^−βt, with y being video intensity at pulsing interval t. A as the plateau video intensity measures MBV and β represents the rate of microvascular filling (i.e., MFV). Microvascular blood flow (MBF) was calculated by multiplying MBV and MFV. All CEU images were analyzed using the QLAB software (Philips Medical Systems, Andover, MA, United States).
After the baseline hippocampal and muscle microvascular parameters were obtained, rats then received a continuous intravenous infusion of either saline or GLP-1 (30 pmol/kg/min) for 120 min. Hippocampal microvascular parameters (MBV, MFV, and MBF) were again determined every 30 min and muscle microvascular parameters at 120 min using CEU. Throughout the study, mean arterial blood pressure (MAP) was monitored via a sensor connected to the carotid catheter (Harvard Apparatus, Holliston, MA, United States, and AD Instruments, Inc., Colorado Springs, CO, United States). Inactin was infused at a variable rate to maintain steady levels of anesthesia and blood pressure throughout the study. Carotid arterial blood glucose concentrations were determined every 30 min using a Contour Next glucometer (BAYER). At the end of each study the rat was euthanized by an overdose of inactin.
FIGURE 8 GLP-1 infusion increases muscle but not […] microvascular perfusion. Each rat received a systemic infusion of saline or GLP-1 at 30 pmol/kg/min for 120 min and MBV, MFV and MBF were determined using contrast-enhanced ultrasound in both […] (A,B,C) and muscle (D,E,F) (n = 6, *p < 0.05, vs. control, Student’s t test).

[2] = GLP-1 concentrations in plasma and CSF (total GLP-1 ELISA); format: in vivo; conditions: rat, systemic infusion 30 pmol/kg/min for 10 min, n = 4
Protocol: (§1) Each rat received a systemic infusion of either saline or GLP-1 (Abcam, Cambridge, United Kingdom) (30 pmol/kg/min) via the jugular vein catheter for 10 min. Plasma samples were then collected and rats sacrificed via anesthetic overdose. Cerebral spinal fluid (CSF) and various brain regions (cerebellum, cortex, hippocampus, hypothalamus, and brain stem) were collected for further assays. Cerebral microvessels were isolated as described ([Austin et al., 2010]). Briefly, brain tissue was disrupted with a razor blade followed by passing through an 18G needle. […]
(§2) All plasma and CSF samples collected during the study were frozen immediately and stored at −80°C until further analysis of GLP-1 concentration using a total GLP-1 ELISA kit (Merck Millipore, Billerica, MA, United States) ([Knezovic et al., 2018]). To measure PKA activity in brain tissue, cerebral microvessels, or cultured cells, samples were homogenized and lysed in PKA lysis buffer and activity determined using a Pep Tag® non-radioactive protein kinase assay kit (Promega, Madison, WI, United States) ([Christian et al., 2011]). […]
(§3) Each rat received a systemic infusion of either saline or GLP-1 (30 pmol/kg/min) for 10 min, GLP-1 concentrations in CSF and plasma were determined and cerebral microvessels were isolated. […] (D) Quantitative analysis of PKA activity (n = 6, *p < 0.05, Student’s t test).

protein kinase A (PKA) = assay: PKA activity in brain regions and cerebral microvessels after GLP-1 infusion; format: in vivo, rat
Protocol: as §1, with “needle. Vessel fragments were harvested using dextran-gradient centrifugation, then collected on a 20 μm pore filter, washed to remove cell debris, and reconstituted in buffer. This was followed by passing through a 100 μm pore size filter. Brain vessels that can pass through the 100 μm filter were considered as cerebral microvessel and used for protein kinase A (PKA) activity assay.” for “needle.”
as §2
FIGURE 2 GLP-1 infusion increases PKA activity in various brain regions in both normal and vagotomized rats. […] PKA activities in various brain regions were determined in normal rats (A,B) and vagotomized rats (D,E). […] (B,E), Quantitative analysis (B, n = 7; *p < 0.05 vs. saline infusion, Student’s t test) (E, n = 6; *p < 0.05 vs. saline infusion, Student’s t test).
as §3

[3] = 30 pmol/kg/min i.v. for 120 min, contrast-enhanced ultrasound, n = 6
[4] = 30 pmol/kg/min i.v. for 120 min, n = 6
[5] = 30 pmol/kg/min i.v., at 120 min, contrast-enhanced ultrasound, n = 6, p < 0.05

- PKA activity in brain microvessels (protein kinase A (PKA); isolated cerebral microvessels, rat, GLP-1 30 pmol/kg/min for 10 min, n = 6, p < 0.05): acutely increased
- PKA activities in all brain regions (protein kinase A (PKA); normal rats, GLP-1 30 pmol/kg/min infusion for 10 min vs saline, n = 7, p < 0.05): significantly increased
- PKA activity in various brain regions (protein kinase A (PKA); sham-operated and sub-diaphragmatic vagotomized rats, GLP-1 30 pmol/kg/min for 10 min, n = 6): rapid and robust increase
Substance: Glucagon-like peptide 1 [GLP-1]
- half-life (DPP4): ~2 min
- hippocampal MBF [1, 3]: did not alter
- hippocampal MBV [1, 3]: did not alter
- hippocampal MFV [1, 3]: did not alter
- Blood glucose during the study [1, 4]: remained stable
- MAP during the study [1, 4]: remained stable
- MFV in muscle ([1]; 30 pmol/kg/min i.v., at 120 min, contrast-enhanced ultrasound, n = 6): without affecting
- MBF in muscle [1, 5]: markedly increase
- MBV in muscle [1, 5]: markedly increase
- levels of GLP-1 in CSF [2]: remained undetectable
- plasma GLP-1 concentrations [2]: markedly increased
